{
  "source": "patent US8003602B2",
  "about": "(priority 2006, dated 2011)",
  "key": {"E. faecium (R-2)": {"system": "E. faecium (R-2)", "assay_type": "cell-based, Enterococcus faecium", "settings": "E. faecium R-2 (VRE)", "text": "(§1) The in-vitro potency was established by minimum inhibitory concentration (MIC) determinations of the compound PM181104 against bacterial strains, by using the Macro-broth dilution method as per National Committee for Clinical Laboratory Standards (2000) guidelines [Journal of Anti-microbial Chemotherapy, 2002, 50, 125-128 (Cross Reference 8: Methods for Dilution Antimicrobial Susceptibility Tests for Bacteria that Grow Aerobically-Fifth Edition: Approved Standard M7-A5. NCCLS, Wayne, Pa., USA)]. Unless stated otherwise, Mueller-Hinton broth was used as nutrient medium for the assay. Linezolid (manufactured by Glenmark Pharma Ltd; Batch no: K2005028) was used as known standard in all in-vitro experiments. For preparation of the stock solution the compound PM181104 was dissolved in chloroform (5% of the total required volume) and diluted using methanol (95% of the total required volume)."}, "E. faecalis ATCC BAA 472": {"system": "E. faecalis ATCC BAA 472", "test": "MIC, Macro-broth dilution method", "assay_type": "cell-based", "text": "as §1"}, "S. aureus (E710)": {"system": "S. aureus (E710)", "test": "MIC, Macro-broth dilution method", "assay_type": "cell-based, Staphylococcus aureus", "settings": "S. aureus MRSA E710", "text": "as §1"}, "[1]": {"system": "Staphylococcus aureus subsp. aureus ATCC 33591", "assay_type": "cell-based", "settings": "S. aureus MRSA ATCC 33591", "text": "as §1"}, "E. faecalis, ATCC 51299": {"system": "E. faecalis, ATCC 51299", "assay_type": "cell-based", "text": "as §1"}, "E. faecalis ATCC 51575": {"system": "E. faecalis ATCC 51575", "assay_type": "cell-based", "text": "as §1"}, "E. faecium ATCC 51559": {"system": "E. faecium ATCC 51559", "assay_type": "cell-based, Enterococcus faecium", "text": "as §1"}, "S. aureus E-710 [2]": {"system": "S. aureus E-710", "test": "Lung infection model", "assay_type": "in vivo, Balb/C mice", "text": "(§2) The in-vivo potency was established by protection dose (PD) determinations of the compound PM181104 for its antibiotic activity in three animal models using either male or female Balb/C mice.\n(§3) The models used were the general purpose efficacy testing models and organ/tissue specific efficacy testing models. The general purpose efficacy testing models used were systemic infection model (septicemia), and localized infection model (neutropenic thigh model). The Organ/Tissue specific infection models used for efficacy testing were kidney, lung infection, and skin abscess model.\nBalb/C mice were rendered neutropenic by intraperitoneally administering 200 mg/kg cyclophosphamide four days and two days prior to infection. On the day of infection, the mice were anesthetized and infected with S. aureus E-710 log-phase culture suspension having bacterial density of approximately 10^6 to 10^7 cfu/ml. 24 and 36 hours post infection the first and second respective dose of drug was administered intravenously. 48 hours post infection, the animals were humanely euthanized and their lungs were aseptically collected to determine the viable count of bacteria. In this model, PM181104 was tested at 5 mg/kg dose prepared in cremophor-ethanol formulation as described in example 14. Two standard antibiotics viz. Linezolid (80 mg/kg single dose at 24 hours post infection) and Vancomycin (110 mg/kg, two doses at 24 and 48 hours post infection) were used as positive controls."}, "[3]": {"system": "Enterococcus faecium ATCC 47077", "test": "Kidney infection model", "assay_type": "in vivo, Balb/C mice", "text": "as §2, §3\n0.2 ml of 2% λ Carrageenan was administered intravenously to Balb/C mice 7 days prior to infection. Overnight grown log phase culture of Enterococcus faecium ATCC 47077 adjusted to approximately 10^9 cfu/ml, was injected intravenously to the mice at a volume of 0.2 ml. PM181104 solution, prepared in cremophor-ethanol formulation as described in example 14, was administered intravenously to the mice at 4 hours, 24 hours and 48 hours post-infection. At 72 hours post infection, the animals were sacrificed and kidneys were harvested to determine the bacterial load. […] Linezolid (manufactured by Glenmark Pharma Ltd; Batch no: K2005028) at 25 mg/kg and Vancomycin hydrochloride (manufactured by HiMedia; Catalogue no: RM217-500 mg; Lot no: 06-0350) at 150 mg/kg dose."}, "S. aureus E-710 [4]": {"system": "S. aureus E-710", "test": "Neutropenic thigh model", "assay_type": "in vivo, Balb/C mice", "settings": "Linezolid at 25 mg/kg dose", "text": "as §2, §3\nEach experimental group consisted of six animals. PM181104 was prepared in cremophor-ethanol formulation as described in example 14."}, "[5]": {"system": "methicillin resistant Staphylococcus aureus E710 (MRSA)", "test": "Systemic infection model (septicemia)", "assay_type": "in vivo, Balb/C mice", "settings": "mice infected intraperitoneally with MRSA E710, administered intravenously immediately after infection", "text": "as §2, §3\nThe animals were infected intraperitoneally with ˜10^8 to 10^9 cfu of an overnight grown culture of methicillin resistant Staphylococcus aureus E710 (MRSA), suspended in normal saline (0.85% sodium chloride). PM181104 solution was prepared in cremophor-ethanol formulation as described in example 14. The solution was administered intravenously at 5 mg, 2.5 mg and 1.25 mg/kg doses, immediately after infection. Each experimental group consisted of ten animals."}, "[6]": {"system": "methicillin resistant S. aureus E710 (MRSA)", "assay_type": "in vivo, Balb/C mice", "settings": "Linezolid at 50 mg/kg dose", "text": "as §2, §3\nBalb/C mice were infected subcutaneously with approximately 10^8 cfu of an overnight grown culture of methicillin resistant S. aureus E710 (MRSA). The bacteria were suspended in 1:1 mixture of 2% cytodex beads in normal saline (0.85% sodium chloride). PM181104 was prepared in cremophor-ethanol formulation as described in example 14. The solution was administered intravenously at 2.5 mg, 5 mg and 10 mg/kg doses, two hours post infection. Each experimental group consisted of six animals. Following abscess formation the animals were sacrificed and abscess harvested to determine the viable counts. […] Linezolid (manufactured by Glenmark Pharma Ltd; Batch no: K2005028) at 50 mg/kg dose."}},
  "note": "Counter-ions that a name gives are not always drawn.",
  "data": [
    {"smiles": "C=C(NC(=O)C(=C)NC(=O)C1CCCN1C(=O)c1nc(-c2ccc(-c3nc(C(=O)NC(=C)C(=O)NC(C)C(N)=O)cs3)c(-c3csc(C4Cc5nc(cs5)C(=O)NC(Cc5ccccc5)C5=NC(CS5)C(=O)NC(Cc5ccc(OC(=O)CCCCCCCCCCCCCCCCC)cc5)C(=O)N5CCCC5c5nc(cs5)C(=O)N4)n3)n2)oc1C)C(N)=O", "note": "(stereo not shown) [Stearic Acid Ester Derivative of PM181104]", "values": [
      {"measurement": "MIC", "setting": "E. faecium (R-2)", "result": 1.25, "unit": "µg/mL"}
    ]},
    {"smiles": "C=C(NC(=O)C(=C)NC(=O)C1CCCN1C(=O)c1nc(-c2ccc(-c3nc(C(=O)NC(=C)C(=O)NC(C)C(N)=O)cs3)c(-c3csc(C4Cc5nc(cs5)C(=O)NC(Cc5ccccc5)C5=NC(CS5)C(=O)NC(Cc5ccc(OC(=O)c6cccnc6)cc5)C(=O)N5CCCC5c5nc(cs5)C(=O)N4)n3)n2)oc1C)C(N)=O", "note": "(stereo not shown) [Nicotinic Acid Ester Derivative of PM181104]", "values": [
      {"measurement": "MIC", "setting": "E. faecalis ATCC BAA 472", "result": 0.312, "unit": "µg/mL"},
      {"measurement": "MIC", "setting": "S. aureus (E710)", "result": ">10", "unit": "µg/mL"},
      {"measurement": "MIC", "setting": "[1]", "result": ">10", "unit": "µg/mL"},
      {"measurement": "MIC", "setting": "E. faecalis, ATCC 51299", "result": 0.312, "unit": "µg/mL"},
      {"measurement": "MIC", "setting": "E. faecalis ATCC 51575", "result": 0.312, "unit": "µg/mL"},
      {"measurement": "MIC", "setting": "E. faecium ATCC 51559", "result": 0.156, "unit": "µg/mL"},
      {"measurement": "MIC", "setting": "E. faecium (R-2)", "result": 0.312, "unit": "µg/mL"}
    ]},
    {"smiles": "CN[C@H](CC(C)C)C(=O)N[C@H]1C(=O)N[C@@H](CC(N)=O)C(=O)N[C@H]2C(=O)N[C@H]3C(=O)N[C@H](C(=O)N[C@H](C(=O)O)c4cc(O)cc(O)c4-c4cc3ccc4O)[C@H](O)c3ccc(c(Cl)c3)Oc3cc2cc(c3O[C@@H]2O[C@H](CO)[C@@H](O)[C@H](O)[C@H]2O[C@H]2C[C@](C)(N)[C@H](O)[C@H](C)O2)Oc2ccc(cc2Cl)[C@H]1O", "note": "[Vancomycin hydrochloride, reference compound]", "values": [
      {"measurement": "activity profile in lung infection", "setting": "S. aureus E-710 [2]; Vancomycin 110 mg/kg, two doses at 24 and 48 hours post infection", "result": "bactericidal profile"},
      {"measurement": "decrease in bacterial count in kidneys, comparison with PM181104", "setting": "[3]; Vancomycin hydrochloride at 150 mg/kg dose", "result": "comparable"}
    ]},
    {"smiles": "C=C(NC(=O)C(=C)NC(=O)C1CCCN1C(=O)c1nc(-c2ccc(-c3nc(C(=O)NC(=C)C(=O)NC(C)C(N)=O)cs3)c(-c3csc(C4Cc5nc(cs5)C(=O)NC(Cc5ccccc5)C5=NC(CS5)C(=O)NC(Cc5ccc(OC(=O)CCC)cc5)C(=O)N5CCCC5c5nc(cs5)C(=O)N4)n3)n2)oc1C)C(N)=O", "note": "(stereo not shown) [Butyric Acid Ester Derivative of PM181104]", "values": [
      {"measurement": "MIC", "setting": "E. faecium (R-2)", "result": 2.5, "unit": "µg/mL"}
    ]},
    {"smiles": "CC(=O)NC[C@H]1CN(c2ccc(N3CCOCC3)c(F)c2)C(=O)O1", "note": "[Linezolid, reference compound]", "values": [
      {"measurement": "decrease in viable counts in thigh tissue, comparison with PM181104", "setting": "S. aureus E-710 [4]", "result": "comparable"},
      {"measurement": "activity profile in lung infection, comparison with PM181104", "setting": "S. aureus E-710 [2]; Linezolid 80 mg/kg single dose at 24 hours post infection", "result": "comparable"},
      {"measurement": "decrease in bacterial count in kidneys, comparison with PM181104", "setting": "[3]; Linezolid at 25 mg/kg", "result": "comparable"},
      {"measurement": "PD100", "setting": "[5]", "result": 25, "unit": "mg/kg"},
      {"measurement": "decrease in bacterial count in abscess, comparison with PM181104", "setting": "[6]", "result": "comparable"}
    ]}
  ]
}
